Assay results published in patent US20260069693A1, “UROLITHINS AND T-CELL MEDIATED IMMUNE RESPONSE” (priority 2022, published 2026).

Test system: Splenic murine T cells
Test: aCD3/aCD28 stimulation of murine T cells in presence of UA, flow cytometry
Format: cell-based
Settings: UA 50 μM + ICG001 10 μM, 48 h
Procedure: Mitochondrial remodelling has been previously associated with alterations in T cell fate (Buck et al., 2016; Yu et al., 2020b). Given the observed dependency of the UA effect on CD8^+ T cells, the inventors wondered whether UA may also directly affect T cell fate commitment. Purified T cells from FVB mice were stimulated with aCD3/aCD28 beads to induce T cell differentiation into effector T cell subsets in the presence or absence of UA for up to 72 hours (FIG. 2A). […] Previously, a rare naïve-like subset of T cells with enhanced stemness capabilities, termed T memory stem cells (TSCM) has been identified (Gattinoni et al., 2009). TSCM are marked by extreme longevity, their ability to self-renew, and potential for immune reconstitution (Gattinoni et al., 2017) which translates into potent anti-tumor immunity. Phenotypically, TSCM represent a subset of minimally differentiated T cells, which share a CD44^loCD62L^hi phenotype with naïve T cells, but are phenotypically distinct by expressing high levels of Sca1 (Gattinoni et al., 2009). […] This was associated with reduced cyclin D1 expression (not shown), in line with previous observations that link TSCM reprogramming to halted proliferation (Gattinoni et al., 2009; Verma et al., 2021).
Splenic murine T cells were isolated from mice aged 6-20 weeks by negative selection with EasySep mouse T cell isolation kit (Stem cell) according to the manufacturer's instructions. To monitor T cell proliferation, purified T cells were loaded with CellTrace Violet (C34557 ThermoFisher Scientific). T cell activation was initiated using αCD3/CD28 activation beads (11456D; ThermoFisher Scientific) at a ratio of 25 μl dynabeads per 0.5×10^6 T-cells. Cells were activated with 25-50 μM Urolithin A (Tocris) or DMSO in T cell activation Medium (RPMI (ThermoFisher Scientific) 10% FBS (South America origin), 10 mM Hepes (Sigma), 1× Non-Essential Amino Acid, 1 mM Sodium Pyruvate, 50 μM B-Mercaptoethanol, 100 U/ml penicillin, 100 μg/ml streptomycin and 2 mM Glutamax (ThermoFisher Scientific) for the indicated durations. In selected experiments, cells were stimulated in the presence of inhibitors, namely TCF1i (ICG-001; SelleckChem; 10 μM) and PGC-1αi (SR-18292, Sigma-Aldrich; 10 μm,). For subsequent analysis, activating beads were magnetically removed prior antibody staining. For human T cells, peripheral blood mononuclear cells were purified with a Ficoll-Paque (GE healthcare) gradient. T cells were enriched with EasySep Human T Cell Isolation Kit (StemCell) and activated with dynabead Human T-Activator CD3/CD28 for T Cell Expansion and Activation Kit (11131D; ThermoFisher Scientific), similar to murine T cell stimulation. […]
For flow cytometric analysis of mitochondria and lysosomes 500 μl of Mitotracker Red (200 nM; ThermoFisher) or Lysotracker Red DND-99 (75 nM; ThermoFisher) were applied followed by surface staining. To study changes in mitochondrial membrane potential, Mitoprobe TMRM kit (ThermoFisher) was used according to the manufacturer's instructions. Cell proliferation was assessed by CellTrace Violet (Invitrogen, C34557) at a concentration of 5 μM according to manufacturer's instructions. For human samples, cells were stained as described above with Fixable Viability Dye-eF780, αCD95-BV421 (DX2; 562616), αCD62L-PE (DREG-56; 555544), αCCR7-AF700 (150503; 561143), αCD45RO-APC (UCHL; 559865), αCD45RA-FITC (HI100; 555488), αCD8-PE-CF594 (RPA-T8; 562282) and αCD4-BV786 (OKT4; 566806) from BD.

## O=C1[C@H](Cc2ccc(O)cc2)N2C(=O)CCN(C(=O)NCc3ccccc3)[C@H]2CN1Cc1cccc2ccccc12 [ICG001, reference compound]
  UA-induced TSCM formation in vitro under TCF-1 block: abrogated
